Measured values reported in patent US11713335B2, “Aminocoumarin compounds and methods of their use” (President and Fellows of Harvard College, priority 2018, dated 2023).
In brackets after ≈: the same amount, converted by molar mass. Read-outs that look alike come from different tables or passages of the source.

Assays:
A. baumannii 19606 = test: Minimal inhibitory concentration, A. baumannii 19606; type: cell-based; settings: 16 hour minimal inhibitory concentration at 37° C., read-out: MIC (μM) A. baumannii 19606
Outline: (§1)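 Growth at 600 nm after 16 h at 37 °C without shaking defines the MIC, taken as the lowest compound concentration that prevents growth and expressed in µM. Cultures grown to saturation in LB, or TSA for S. aureus, were diluted 1:100 twice before twofold serial compound dilution.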

E. coli 25922 = test: Minimal inhibitory concentration, E. coli 25922; type: cell-based; settings: 16 hour minimal inhibitory concentration at 37° C., read-out: MIC (μM) E. coli 25922
Outline: as §1

E. coli MC4100 = test: Minimal inhibitory concentration, E. coli MC4100; type: cell-based; settings: 16 hour minimal inhibitory concentration at 37° C., read-out: MIC (μM) E. coli MC4100 ara+
Outline: as §1

S. aureus MW2 = test: Minimal inhibitory concentration, S. aureus MW2; type: cell-based; settings: 16 hour minimal inhibitory concentration at 37° C., read-out: MIC (μM) S. aureus MW2 (MRSA)
Outline: as §1

K. pneumoniae 700721 = test: Minimal inhibitory concentration, K. pneumoniae 700721; type: cell-based; settings: 16 hour minimal inhibitory concentration at 37° C., read-out: MIC (μM) K. pneumoniae 700721
Outline: as §1

S. aureus RN4220 = test: Minimal inhibitory concentration, S. aureus RN4220; type: cell-based; settings: 16 hour minimal inhibitory concentration at 37° C., read-out: MIC (μM) S. aureus RN4220
Outline: as §1

WT E. coli = test: Minimal inhibitory concentration in wild-type E. coli; type: cell-based, Escherichia coli; settings: wild-type E. coli, 37° C., 16 hours, read-out: MIC (μM) in WT E. coli
Outline: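 Broth microdilution: saturated LB overnight culture diluted 1:100 twice, compound serially two-fold diluted across the plate from DMSO stock. Static incubation 16 hours at 37° C, OD600 read; MIC taken as lowest concentration inhibiting growth.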

E. cloacae 13047 = test: Minimal inhibitory concentration, E. cloacae 13047; type: cell-based; settings: 16 hour minimal inhibitory concentration at 37° C., read-out: MIC (μM) E. cloacae 13047
Outline: as §1

[1] = Acinetobacter baumannii, 19606, 16 h
[2] = Staphylococcus aureus, MRSA, 16 h
[3] = Staphylococcus aureus, RN4220, 16 h

| Structure (SMILES) | MIC (A. baumannii 19606) [µM] | MIC (E. coli 25922) [µM] | MIC (E. coli MC4100) [µM] | MIC (S. aureus MW2) [µM] | MIC (K. pneumoniae 700721) [µM] | MIC (S. aureus RN4220) [µM] | MIC (WT E. coli) [µM] | MIC (E. cloacae 13047) [µM] | MIC (A. baumannii 19606; [1]) [µM] | MIC (E. coli 25922; Escherichia coli, 25922, 16 h) [µM] | MIC (E. coli MC4100; Escherichia coli, MC4100, 16 h) [µM] | MIC (S. aureus MW2; [2]) [µM] | MIC (K. pneumoniae 700721; Klebsiella pneumoniae, 700721) [µM] | MIC (S. aureus RN4220; [3]) [µM] | MIC (WT E. coli; Escherichia coli) [µM] | MIC (E. cloacae 13047; Enterobacter cloacae, 13047) [µM] |
| --- | --- | --- | --- | --- | --- | --- | --- | --- | --- | --- | --- | --- | --- | --- | --- | --- |
| CO[C@@H]1[C@@H](OC(N)=O)[C@@H](O)[C@H](Oc2ccc3c(O)c(NC(=O)c4ccc5ccn(C)c5c4)c(=O)oc3c2C)OC1(C)C.Cl [Compound 71] | >50 | >200 | >200 | 41 | >100 | 81 | >300 | >100 | – | – | – | – | – | – | – | – |
| CO[C@@H]1[C@@H](OC(N)=O)[C@@H](O)[C@H](Oc2ccc3c(O)c(NC(=O)c4cc(O)c(O)c(-c5ccc(F)cc5)c4)c(=O)oc3c2C)OC1(C)C [Compound 95] | >50 | 38 (≈ 24.9 µg/mL) | 38 (≈ 24.9 µg/mL) | 38 (≈ 24.9 µg/mL) | >100 | 38 (≈ 24.9 µg/mL) | 38 (≈ 24.9 µg/mL) | >100 | – | – | – | – | – | – | – | – |
| COc1cc(C(=O)Nc2c(O)c3ccc(O[C@@H]4OC(C)(C)[C@H](OC)[C@@H](OC(N)=O)[C@H]4O)c(C)c3oc2=O)cc(OC)c1OC [Compound 11] | – | – | – | – | – | – | – | – | > 50 | > 200 | > 200 | > 100 | > 100 | > 100 | > 300 | > 100 |
| CO[C@@H]1[C@@H](OC(N)=O)[C@@H](O)[C@H](Oc2ccc3c(O)c(NC(=O)c4ccc5ccccc5c4)c(=O)oc3c2C)OC1(C)C [Compound 4] | – | – | – | – | – | – | – | – | > 50 | > 200 | > 200 | 22 (≈ 12.7 µg/mL) | > 100 | 22 (≈ 12.7 µg/mL) | > 300 | > 100 |
| CO[C@@H]1[C@@H](OC(N)=O)[C@@H](O)[C@H](Oc2ccc3c(O)c(NC(=O)c4cc(O)cc(-c5ccccc5)c4)c(=O)oc3c2C)OC1(C)C [Compound 78] | 40 (≈ 24.8 µg/mL) | 40 (≈ 24.8 µg/mL) | 59 (≈ 36.6 µg/mL) | 4 (≈ 2.48 µg/mL) | >100 | 5 (≈ 3.1 µg/mL) | 59 (≈ 36.6 µg/mL) | >100 | – | – | – | – | – | – | – | – |
| CO[C@@H]1[C@@H](OC(N)=O)[C@@H](O)[C@H](Oc2ccc3c(O)c(NC(=O)c4cccc(-c5cccc(O)c5O)c4)c(=O)oc3c2C)OC1(C)C [Compound 99] | >50 | >200 | >200 | 79 (≈ 50.3 µg/mL) | >100 | 79 (≈ 50.3 µg/mL) | >300 | >100 | – | – | – | – | – | – | – | – |
| CO[C@@H]1[C@@H](OC(N)=O)[C@@H](O)[C@H](Oc2ccc3c(O)c(NC(=O)c4cc(-c5ccccc5)c(O)cc4O)c(=O)oc3c2C)OC1(C)C [Compound 67] | >50 | 5 (≈ 3.18 µg/mL) | 18 (≈ 11.5 µg/mL) | 5 (≈ 3.18 µg/mL) | 79 (≈ 50.3 µg/mL) | 10 (≈ 6.37 µg/mL) | 18 (≈ 11.5 µg/mL) | >100 | – | – | – | – | – | – | – | – |
| CO[C@@H]1[C@@H](OC(N)=O)[C@@H](O)[C@H](Oc2ccc3c(O)c(NC(=O)c4ccccc4)c(=O)oc3c2C)OC1(C)C [Compound 8] | >50 | >200 | >200 | >100 | >100 | >100 | >300 | >100 | – | – | – | – | – | – | – | – |
| CO[C@@H]1[C@@H](OC(N)=O)[C@@H](O)[C@H](Oc2ccc3c(O)c(NC(=O)c4ccc(CCc5ccccc5)cc4)c(=O)oc3c2C)OC1(C)C [Compound 77] | >50 | 40 (≈ 25.3 µg/mL) | 40 (≈ 25.3 µg/mL) | 5 (≈ 3.16 µg/mL) | >100 | 10 (≈ 6.33 µg/mL) | 40 (≈ 25.3 µg/mL) | >100 | – | – | – | – | – | – | – | – |
| CCc1ccc(-c2cccc(C(=O)Nc3c(O)c4ccc(O[C@@H]5OC(C)(C)[C@H](OC)[C@@H](OC(N)=O)[C@H]5O)c(C)c4oc3=O)c2)cc1 [Compound 54] | 20 (≈ 12.7 µg/mL) | 79 (≈ 50 µg/mL) | 40 (≈ 25.3 µg/mL) | 0.99 (≈ 0.626 µg/mL) | 79 (≈ 50 µg/mL) | 0.99 (≈ 0.626 µg/mL) | 40 (≈ 25.3 µg/mL) | >100 | – | – | – | – | – | – | – | – |
| CO[C@@H]1[C@@H](OC(N)=O)[C@@H](O)[C@H](Oc2ccc3c(O)c(NC(=O)c4ccc(O)c(CC(N)=O)c4)c(=O)oc3c2C)OC1(C)C [Compound 90] | >50 | >200 | >200 | >100 | >100 | >100 | >300 | >100 | – | – | – | – | – | – | – | – |
| CO[C@@H]1[C@@H](OC(N)=O)[C@@H](O)[C@H](Oc2ccc3c(O)c(NC(=O)c4cccc(-c5ccccc5OC(F)(F)F)c4)c(=O)oc3c2C)OC1(C)C [Compound 59] | >50 | >200 | 40 (≈ 27.5 µg/mL) | 5 (≈ 3.44 µg/mL) | >100 | 9 (≈ 6.2 µg/mL) | 40 (≈ 27.5 µg/mL) | >100 | – | – | – | – | – | – | – | – |
| CO[C@@H]1[C@@H](OC(N)=O)[C@@H](O)[C@H](Oc2ccc3c(O)c(NC(=O)c4ccc5c(ccn5C)c4)c(=O)oc3c2C)OC1(C)C [Compound 72] | >50 | >200 | >200 | 43 (≈ 25 µg/mL) | >100 | 86 (≈ 50 µg/mL) | >300 | >100 | – | – | – | – | – | – | – | – |
| CO[C@@H]1[C@@H](OC(N)=O)[C@@H](O)[C@H](Oc2ccc3c(O)c(NC(=O)c4cccc(-c5ccc(C(F)(F)F)cc5)c4)c(=O)oc3c2C)OC1(C)C [Compound 55] | 37 (≈ 24.9 µg/mL) | >200 | >200 | 0.93 (≈ 0.626 µg/mL) | >100 | 1.49 (≈ 1 µg/mL) | >300 | >100 | – | – | – | – | – | – | – | – |
| CO[C@@H]1[C@@H](OC(N)=O)[C@@H](O)[C@H](Oc2ccc3c(O)c(NC(=O)c4ccc(N)c(-c5ccccc5)c4)c(=O)oc3c2C)OC1(C)C [Compound 86] | >50 | 20 (≈ 12.4 µg/mL) | 18 (≈ 11.2 µg/mL) | 20 (≈ 12.4 µg/mL) | 40 (≈ 24.8 µg/mL) | 20 (≈ 12.4 µg/mL) | 18 (≈ 11.2 µg/mL) | >100 | – | – | – | – | – | – | – | – |
| CO[C@@H]1[C@@H](OC(N)=O)[C@@H](O)[C@H](Oc2ccc3c(O)c(NC(=O)c4cccc(-c5ccccc5C(C)C)c4)c(=O)oc3c2C)OC1(C)C [Compound 49] | >50 | >200 | >200 | 5 (≈ 3.23 µg/mL) | >100 | 10 (≈ 6.47 µg/mL) | >300 | >100 | – | – | – | – | – | – | – | – |
| CO[C@@H]1[C@@H](OC(N)=O)[C@@H](O)[C@H](Oc2ccc3c(O)c(NC(=O)c4cc(-c5ccc(F)cc5)cc(O)c4O)c(=O)oc3c2C)OC1(C)C [Compound 97] | >50 | 153 (≈ 100 µg/mL) | >200 | 38 (≈ 24.9 µg/mL) | >100 | 76 (≈ 49.7 µg/mL) | >300 | >100 | – | – | – | – | – | – | – | – |
| CO[C@@H]1[C@@H](OC(N)=O)[C@@H](O)[C@H](Oc2ccc3c(O)c(NC(=O)c4cccc(-c5ccc(F)cc5)c4)c(=O)oc3c2C)OC1(C)C [Compound 28] | – | – | – | – | – | – | – | – | > 50 | 40 (≈ 24.9 µg/mL) | 26 (≈ 16.2 µg/mL) | 5 (≈ 3.11 µg/mL) | 80 (≈ 49.8 µg/mL) | 5 (≈ 3.11 µg/mL) | 26 (≈ 16.2 µg/mL) | 161 (≈ 100 µg/mL) |
